According to PubChem BioAssay (NCI):
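Following 48 hours of exposure in 96-well plates, responses at five concentrations were used to interpolate endpoints linearly. Abbreviation: GI50, concentration required for 50% inhibition of growth. The concentration for full growth arrest is given as TGI.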

Tested on: HCT-15 colon
Experiment: NCI anticancer screen, dose series, 48 h

Row | SMILES | GI50 | TGI
1 | CN(C)CC(O)c1ccc(/C=C/c2ccc(Cl)cc2)cc1 (stereo not given) | 1.62 µM | 3.32 µM
2 | Cc1nnc2ccnn2c1C | > 100 µM | > 100 µM
3 | CCOC(=O)C1=C(C)N(NC(=O)Nc2ccccc2)C2(N)N(NC(=O)Nc3ccccc3)C(C)=C(C(=O)OCC)C12C(=O)OCC (stereo not given) |  | > 100 µM
4 | O=C(O)CSc1n[nH]c(-c2ccccc2O)n1 |  | > 100 µM
5 | Cc1nc(-c2nc(C)c(C(=O)NNC(=O)C[n+]3ccccc3)s2)sc1C(=O)NNC(=O)C[n+]1ccccc1 |  | > 100 µM
6 | CN(C)C=Nc1nc(=O)n(C2CCC(CO)O2)cc1F (stereo not given) |  | > 100 µM
7 | COc1cc2c(cc1OC)-c1cc(OC)c(OC)cc1C(CN(C)C)C2 (stereo not given) | > 10 µM | > 10 µM
8 | O=c1[nH]c(-c2ccccc2)nc2cc(Cl)ccc12 |  | > 100 µM
9 | Cc1ccc(S(=O)(=O)N2CCC2c2ccccc2)cc1 (stereo not given) |  | > 100 µM
10 | CCCOc1nc(N)c2cnn(C3CCCCO3)c2n1 (stereo not given) |  | > 100 µM
11 | C/C(CN1C(=O)c2ccccc2C1=O)=N\NS(=O)(=O)c1ccc(Cl)cc1 |  | > 100 µM
12 | CC(C)(C)[Si](C)(C)OC1[C@@H](O[Si](C)(C)C(C)(C)C)[C@@H](CNC(=O)NC(=O)C(F)(F)F)O[C@H]1n1cnc2c(NC(=O)Nc3ccccc3)ncnc21 (stereo not given in full) | 2.94 µM | 9.12 µM
13 | COc1ccc(/C=C/COC(C)=O)cc1OC |  | > 100 µM
14 | Cc1ccc(-c2nc(N3CCNCC3)c3oc(-c4ccc(C)cc4)nc3n2)cc1 | 1.72 µM | 3.28 µM
15 | [O-][Cl+3]([O-])([O-])[O-].[O]=[Ru]=[O].c1ccc(-c2ccccn2)nc1.c1ccc(-c2ccccn2)nc1 | > 100 µM | > 100 µM
16 | Cc1ccc(NC2=C3CCCCC3OC2=O)cc1 (stereo not given) | > 100 µM | > 100 µM
17 | O=C1C(C(Nc2ccccc2)c2ccccc2)=C([O-])c2ccccc21.O=C1C(C(Nc2ccccc2)c2ccccc2)=C([O-])c2ccccc21.[Cu+2] (stereo not given) | 52.4 µM | > 100 µM
18 | CN(C)CC1CCC/C1=N/OC(=O)c1ccccc1 (stereo not given) |  | > 100 µM
19 | CCOC(=O)C1Sc2ccccc2N=C1C (stereo not given) |  | > 100 µM
20 | COC1=CC(=O)C(C2(OC(C)C)OC(=O)C(Cl)=C2Cl)=CC1=O (stereo not given) |  | > 100 µM
21 | CCC(C)SC1SCC2C(=O)N(C)C3(CC3C)C(=O)OCC(NC(=O)c3nc4ccccc4cc3O)C(=O)NC(C)C(=O)N(C)C1C(=O)N(C)C1(CC1C)C(=O)OCC(NC(=O)c1nc3ccccc3cc1O)C(=O)NC(C)C(=O)N2C (stereo not given) |  | 0.0538 µM
22 | Cc1[cH-]c(=O)n(-c2ccccc2)n1.[Au+].[Au].c1ccc([PH+](c2ccccc2)c2ccccc2)cc1.c1ccc([PH+](c2ccccc2)c2ccccc2)cc1 | 11.8 µM | 29.3 µM
23 | CC1(C)CC(c2c[nH]c3ccccc23)=CC2=Nc3ccccc3C21O (stereo not given) |  | > 100 µM
24 | CN1C(=O)C(=O)N2c3ccc(Cl)cc3C3(c4ccccc4)N=CC12O3 (stereo not given) |  | 13.3 µM
25 | COc1ccc(CN2C(=O)C(Cl)=C(Nc3cccc(C(F)(F)F)c3)C2=O)cc1 | 3.69 µM | 17.6 µM
26 | O=[N+]([O-])c1cc([N+](=O)[O-])c(C(F)(F)F)cc1NN=C(c1ccc(O)cc1)c1ccc(O)cc1 | 2.84 µM | 11.7 µM
27 | NC(=S)N/N=C\c1nccc2c(C(F)(F)F)cccc12 | 0.315 µM | 19.2 µM
28 | CC(=O)N[C@@H](Cc1ccc(OP(=O)(O)O)cc1)C(=O)N[C@H]1CCC(=O)N2CCC[C@@H](C(=O)Nc3cccc4ccccc34)N2C1=O | > 25 µM | > 25 µM
29 | O=C(/C=C/c1c(O)ccc2ccccc12)c1ccc([N+](=O)[O-])cc1 |  | > 66.8 µM

Tested on: HOP-62 NSCLC
Experiment: NCI anticancer screen, dose series, 48 h

Row | SMILES | TGI | GI50
30 | C[C@@]1(O)CC[C@]2(C)C3CCCC3[C@H]12 (stereo not given in full) | > 100 µM | 
31 | COc1cc(-c2nn(-c3cccc(NC(=O)c4ccccc4)c3)cc2-c2ccncc2)ccc1Cl | > 100 µM | 2.49 µM
32 | Cc1cc(Nc2ccc(C)c(Cl)c2)n2nc(C(F)(F)F)nc2n1 | 98.9 µM | 30.8 µM
33 | COc1ccc(Cn2c(Br)c3c(c2Br)-c2nc(N)sc2CC3)cc1 | 20.5 µM | 6.55 µM
34 | CC(=O)[O-].CC(=O)[O-].O=C(N/N=C/c1cc(Cl)cc(Cl)c1O)c1ccncc1.[Cu+2] | > 100 µM | 
